In the NIST ThermoML archive (doi:10.1016/j.jct.2017.09.022):
“And” between values parts separate entries of the source, which are not always exact repeats. Identical values can stand only once.

Assay: molar heat capacity at constant pressure
Details: 101.33 kPa, Crystal, Small (less than 1 g) adiabatic calorimetry

C[C@@H](O)[C@H](N)C(=O)O [L-threonine]
Details | molar heat capacity at constant pressure
5 K | 0.06402 J/K/mol
7.37 K | 0.2004 J/K/mol
7.65 K | 0.2303 J/K/mol
8.44 K | 0.3068 J/K/mol
9.19 K | 0.3958 J/K/mol
9.43 K | 0.4407 J/K/mol
9.67 K | 0.4739 J/K/mol
9.9 K | 0.4922 J/K/mol
10 K | 0.5155 J/K/mol
10.18 K | 0.5729 J/K/mol
10.51 K | 0.6643 J/K/mol
10.84 K | 0.7242 J/K/mol
11.17 K | 0.8156 J/K/mol
11.5 K | 0.9129 J/K/mol
11.83 K | 0.9969 J/K/mol
12.17 K | 1.113 J/K/mol
12.51 K | 1.243 J/K/mol
12.84 K | 1.353 J/K/mol
13.18 K | 1.481 J/K/mol
13.53 K | 1.619 J/K/mol
13.87 K | 1.76 J/K/mol
14.22 K | 1.913 J/K/mol
14.57 K | 2.065 J/K/mol
14.92 K | 2.237 J/K/mol
15 K | 2.278 J/K/mol
15.27 K | 2.377 J/K/mol
15.62 K | 2.567 J/K/mol
15.97 K | 2.765 J/K/mol
16.32 K | 2.985 J/K/mol
16.68 K | 3.152 J/K/mol
17.04 K | 3.354 J/K/mol
17.4 K | 3.602 J/K/mol
17.76 K | 3.807 J/K/mol
18.11 K | 4.063 J/K/mol
18.48 K | 4.285 J/K/mol
18.83 K | 4.521 J/K/mol
19.2 K | 4.803 J/K/mol
19.56 K | 5.051 J/K/mol
19.93 K | 5.331 J/K/mol
20 K | 5.346 J/K/mol
20.52 K | 5.738 J/K/mol
21.27 K | 6.302 J/K/mol
22.01 K | 6.89 J/K/mol
22.77 K | 7.515 J/K/mol
23.52 K | 8.157 J/K/mol
24.28 K | 8.822 J/K/mol
25 K | 9.478 J/K/mol
25.04 K | 9.545 J/K/mol
25.8 K | 10.28 J/K/mol
26.57 K | 10.94 J/K/mol
27.34 K | 11.62 J/K/mol
28.11 K | 12.31 J/K/mol
28.88 K | 13.09 J/K/mol
29.66 K | 13.84 J/K/mol
30 K | 14.22 J/K/mol
30.44 K | 14.63 J/K/mol
31.22 K | 15.38 J/K/mol
32.01 K | 16.18 J/K/mol
32.79 K | 16.94 J/K/mol
33.58 K | 17.68 J/K/mol
34.37 K | 18.37 J/K/mol
35 K | 19.04 J/K/mol
35.15 K | 19.16 J/K/mol
35.94 K | 19.87 J/K/mol
36.73 K | 20.63 J/K/mol
37.52 K | 21.36 J/K/mol
38.32 K | 22.06 J/K/mol
39.11 K | 22.79 J/K/mol
39.9 K | 23.46 J/K/mol
40 K | 23.61 J/K/mol
40.69 K | 24.2 J/K/mol
41.48 K | 24.95 J/K/mol
42.28 K | 25.65 J/K/mol
43.08 K | 26.38 J/K/mol
43.88 K | 27.09 J/K/mol
44.68 K | 27.83 J/K/mol
45 K | 28.02 J/K/mol
45.48 K | 28.52 J/K/mol
46.27 K | 29.22 J/K/mol
47.07 K | 29.92 J/K/mol
47.87 K | 30.56 J/K/mol
48.67 K | 31.17 J/K/mol
49.47 K | 31.85 J/K/mol
50 K | 32.34 J/K/mol
50.27 K | 32.5 J/K/mol
51.07 K | 33.12 J/K/mol
51.88 K | 33.83 J/K/mol
52.68 K | 34.53 J/K/mol
53.48 K | 35.28 J/K/mol
54.29 K | 36.14 J/K/mol
55.09 K | 36.92 J/K/mol
55.9 K | 37.74 J/K/mol
56.7 K | 38.35 J/K/mol
57.51 K | 38.9 J/K/mol
58.32 K | 39.21 J/K/mol
59.12 K | 39.75 J/K/mol
59.93 K | 40.38 J/K/mol
60 K | 40.57 J/K/mol
60.74 K | 41.01 J/K/mol
61.55 K | 41.64 J/K/mol
62.35 K | 42.25 J/K/mol
63.15 K | 42.88 J/K/mol
63.96 K | 43.87 J/K/mol
64.76 K | 44.47 J/K/mol
65.57 K | 44.98 J/K/mol
66.38 K | 45.55 J/K/mol
67.19 K | 46.09 J/K/mol
67.99 K | 46.67 J/K/mol
68.8 K | 47.24 J/K/mol
69.61 K | 47.68 J/K/mol
70 K | 48.06 J/K/mol
70.54 K | 48.31 J/K/mol
71.58 K | 49.14 J/K/mol
72.63 K | 49.7 J/K/mol
73.67 K | 50.33 J/K/mol
74.72 K | 50.78 J/K/mol
75.77 K | 51.34 J/K/mol
76.82 K | 51.96 J/K/mol
77.87 K | 52.51 J/K/mol
78.92 K | 53.08 J/K/mol
79.65 K | 53.03 J/K/mol
79.97 K | 53.66 J/K/mol
80 K | 53.55 J/K/mol
80.45 K | 53.52 J/K/mol
81.02 K | 54.31 J/K/mol
81.25 K | 53.96 J/K/mol
82.06 K | 54.87 J/K/mol and 54.48 J/K/mol
82.86 K | 54.97 J/K/mol
83.11 K | 55.52 J/K/mol
83.66 K | 55.42 J/K/mol
84.17 K | 56.16 J/K/mol
84.46 K | 55.88 J/K/mol
85.26 K | 56.34 J/K/mol
86.06 K | 56.87 J/K/mol
86.86 K | 57.38 J/K/mol
87.65 K | 57.86 J/K/mol
88.45 K | 58.33 J/K/mol
89.25 K | 58.77 J/K/mol
90 K | 59.28 J/K/mol
90.05 K | 59.23 J/K/mol
90.85 K | 59.72 J/K/mol
91.64 K | 60.19 J/K/mol
92.44 K | 60.74 J/K/mol
93.24 K | 61.3 J/K/mol
94.04 K | 61.77 J/K/mol
94.84 K | 62.19 J/K/mol
95.63 K | 62.65 J/K/mol
96.43 K | 63.12 J/K/mol
97.23 K | 63.64 J/K/mol
98.02 K | 64.16 J/K/mol
98.82 K | 64.62 J/K/mol
99.62 K | 65.04 J/K/mol
100 K | 65.27 J/K/mol
100.5 K | 65.53 J/K/mol
101.45 K | 66.12 J/K/mol
102.41 K | 66.61 J/K/mol
103.36 K | 67.11 J/K/mol
104.32 K | 67.67 J/K/mol
105.27 K | 68.2 J/K/mol
106.22 K | 68.79 J/K/mol
107.18 K | 69.35 J/K/mol
108.13 K | 69.83 J/K/mol
109.09 K | 70.36 J/K/mol
110 K | 70.84 J/K/mol
110.05 K | 70.8 J/K/mol
111 K | 71.32 J/K/mol
111.95 K | 71.94 J/K/mol
112.91 K | 72.42 J/K/mol
113.86 K | 72.95 J/K/mol
114.82 K | 73.43 J/K/mol
115.77 K | 73.97 J/K/mol
116.72 K | 74.36 J/K/mol
117.68 K | 74.92 J/K/mol
118.63 K | 75.5 J/K/mol
119.59 K | 75.89 J/K/mol
120 K | 76.16 J/K/mol
120.53 K | 76.35 J/K/mol
121.49 K | 76.8 J/K/mol
122.44 K | 77.45 J/K/mol
123.39 K | 77.91 J/K/mol
124.35 K | 78.3 J/K/mol
125.3 K | 78.8 J/K/mol
126.25 K | 79.27 J/K/mol
127.21 K | 79.82 J/K/mol
128.16 K | 80.26 J/K/mol
129.11 K | 80.78 J/K/mol
130 K | 81.23 J/K/mol
130.07 K | 81.26 J/K/mol
131.02 K | 81.7 J/K/mol
131.97 K | 82.11 J/K/mol
132.93 K | 82.72 J/K/mol
133.87 K | 83.14 J/K/mol
134.82 K | 83.73 J/K/mol
135.76 K | 84.14 J/K/mol
136.71 K | 84.56 J/K/mol
137.66 K | 85.22 J/K/mol
138.61 K | 85.64 J/K/mol
139.56 K | 85.97 J/K/mol
140 K | 86.22 J/K/mol
140.51 K | 86.55 J/K/mol
141.46 K | 87.05 J/K/mol
142.41 K | 87.47 J/K/mol
143.36 K | 87.8 J/K/mol
144.31 K | 88.38 J/K/mol
